Experimental data: patent publication US20240050428A1 (Cullgen (Shanghai), Inc., priority 2020, published 2024)
pIC50: −log10 of the molar value. Like-named read-outs stand apart in the source and are kept apart here.

What was measured:
MV4;11 cells = assay: Cell viability assay (CellTiter-Glo) in MV4;11 cells, alone or with gilteritinib; assay type: cell-based; settings: Homo sapiens, MV4;11 cells, three days, CellTiter-Glo, read-out: MV4
MOLM-13 cells = assay: Cell viability assay (CellTiter-Glo) in MOLM-13 cells, alone or with gilteritinib; assay type: cell-based; settings: Homo sapiens, MOLM-13 cells, three days, CellTiter-Glo
[1] = MV4-11, 72 h, compound alone (without gilteritinib), 11 IC50
[2] = MV4-11, 72 h, with gilteritinib 10 nM, 11 IC50 gilteritinib
[3] = MOLM-13, 72 h, compound alone (without gilteritinib), read-out: MOLM-13 IC50
[4] = MOLM-13, 72 h, with gilteritinib 20 nM, read-out: MOLM-13 IC50 gilteritinib
[5] = 72 h, compound alone (without gilteritinib), 11 IC50
[6] = 72 h, with gilteritinib 10 nM, 11 IC50 gilteritinib
[7] = 72 h, compound alone (without gilteritinib), read-out: MOLM-13 IC50
[8] = 72 h, with gilteritinib 20 nM, read-out: MOLM-13 IC50 gilteritinib
[9] = MV4-11, 72 h, compound with gilteritinib 10 nM, 11 IC50 gilteritinib
[10] = MOLM-13, 72 h, compound with gilteritinib 20 nM, read-out: MOLM-13 IC50 gilteritinib

SMILES | pIC50 (MV4;11 cells; [1]) | pIC50 (MV4;11 cells; [2]) | pIC50 (MOLM-13 cells; [3]) | pIC50 (MOLM-13 cells; [4]) | pIC50 (MV4;11 cells; [9]) | pIC50 (MOLM-13 cells; [10]) | pIC50 (MV4;11 cells; [5]) | pIC50 (MV4;11 cells; [6]) | pIC50 (MOLM-13 cells; [7]) | pIC50 (MOLM-13 cells; [8])
O=C(CCn1cc(-c2cnc3ccccc3n2)c(C2CC2)n1)NCc1ccc2c(c1)C(=O)N(C1CCC(=O)NC1=O)C2=O (centres unmarked) [GS-312, 3-(3-Cyclopropyl-4-(quinoxalin-2-yl)-1H-pyrazol-1-yl)-N-((2-(2,6-dioxopiperidin-3-yl)-1,3-dioxoisoindolin-5-yl)methyl)propanamide] |  |  |  |  |  |  | < 6.00 | < 6.00 | < 6.00 | < 6.00
O=C1CCC(N2C(=O)c3ccc(NC[C@H]4C[C@H](n5cc(C6CCCC6)c(C6CC6)n5)C4)cc3C2=O)C(=O)N1 (stereo partly drawn) [GS-631, 5-(((trans-3-(4-Cyclopentyl-3-cyclopropyl-1H-pyrazol-1-yl)cyclobutyl)methyl)amino)-2-(2,6-dioxopiperidin-3-yl)isoindoline-1,3-dione] | 6.00 to 7.00 |  | 6.00 to 7.00 |  | 7.00 to 8.00 | 7.00 to 8.00 |  |  |  | 
O=C1CCC(N2C(=O)c3ccc(NCCCCCCn4ccc(-c5cnc6ccccc6n5)n4)cc3C2=O)C(=O)N1 (centres unmarked) [GS-536, 2-(2,6-Dioxopiperidin-3-yl)-5-((6-(3-(quinoxalin-2-yl)-1H-pyrazol-1-yl)hexyl)amino)isoindoline-1,3-dione] | < 6.00 |  | < 6.00 |  | 6.00 to 7.00 | 7.00 to 8.00 |  |  |  | 
O=C1CCC(N2Cc3cc(CCCCCCn4cc(-c5cnc6ccccc6n5)cn4)ccc3C2=O)C(=O)N1 (centres unmarked) [GS-374, 3-(1-Oxo-5-(6-(4-(quinoxalin-2-yl)-1H-pyrazol-1-yl)hexyl)isoindolin-2-yl)piperidine-2,6-dione] | 6.00 to 7.00 | < 6.00 | < 6.00 | 6.00 to 7.00 |  |  |  |  |  | 
O=C1CCC(N2C(=O)c3ccc(NCCNc4cccc(-n5cc(-c6cnc7cccc(Br)c7n6)cn5)c4)cc3C2=O)C(=O)N1 (centres unmarked) [GS-357, 5-((2-((3-(4-(8-Bromoquinoxalin-2-yl)-1H-pyrazol-1-yl)phenyl)amino)ethyl)amino)-2-(2,6-dioxopiperidin-3-yl)isoindoline-1,3-dione] |  |  |  |  |  |  | 7.00 to 8.00 | 7.00 to 8.00 | 7.00 to 8.00 | 7.00 to 8.00
N#Cc1cccc2nc(-c3cnn([C@H]4C[C@H](CCCNc5ccc6c(c5)C(=O)N(C5CCC(=O)NC5=O)C6=O)C4)c3)cnc12 (stereo partly drawn) [GS-233, 2-(1-(trans-3-(3-((2-(2,6-Dioxopiperidin-3-yl)-1,3-dioxoisoindolin-5-yl)amino)propyl)cyclobutyl)-1H-pyrazol-4-yl)quinoxaline-5-carbonitrile] | 6.00 to 7.00 | 7.00 to 8.00 | 6.00 to 7.00 | 7.00 to 8.00 |  |  |  |  |  | 
O=C1CCC(N2C(=O)c3ccc(NCCC[C@H]4C[C@H](n5ccc(C6CC6)n5)C4)cc3C2=O)C(=O)N1 (stereo partly drawn) [GS-591, 5-((3-(trans-3-(3-Cyclopropyl-1H-pyrazol-1-yl)cyclobutyl)propyl)amino)-2-(2,6-dioxopiperidin-3-yl)isoindoline-1,3-dione] | < 6.00 |  | < 6.00 |  | 6.00 to 7.00 | 6.00 to 7.00 |  |  |  | 
O=C1CCC(N2C(=O)c3ccc(N4CC(CCCCn5cc(-c6cnc7ccccc7n6)cn5)C4)cc3C2=O)C(=O)N1 (centres unmarked) [GS-367, 2-(2,6-Dioxopiperidin-3-yl)-5-(3-(4-(4-(quinoxalin-2-yl)-1H-pyrazol-1-yl)butyl)azetidin-1-yl)isoindoline-1,3-dione] | < 6.00 | < 6.00 | < 6.00 | < 6.00 |  |  |  |  |  | 
CN1CCC(c2cccc(-c3cnn([C@H]4C[C@H](CCCNc5ccc6c(c5)C(=O)N(C5CCC(=O)NC5=O)C6=O)C4)c3)n2)CC1 (stereo partly drawn) [GS-237, 2-(2,6-Dioxopiperidin-3-yl)-5-((3-(trans-3-(4-(6-(1-methylpiperidin-4-yl)pyridin-2-yl)-1H-pyrazol-1-yl)cyclobutyl)propyl)amino)isoindoline-1,3-dione] | < 6.00 | 6.00 to 7.00 | < 6.00 | 6.00 to 7.00 |  |  |  |  |  | 
O=C1CCC(N2C(=O)c3ccc(NCCCCCCn4cc(-c5cnc6cccc(C7CCOCC7)c6n5)cn4)cc3C2=O)C(=O)N1 (centres unmarked) [GS-382] | < 6.00 | < 6.00 | < 6.00 | 7.00 to 8.00 |  |  |  |  |  | 

Second part, led by results:

pIC50 (MV4;11 cells; [1]) | pIC50 (MV4;11 cells; [2]) | pIC50 (MOLM-13 cells; [3]) | pIC50 (MOLM-13 cells; [4]) | pIC50 (MV4;11 cells; [9]) | pIC50 (MOLM-13 cells; [10]) | SMILES | pIC50 (MV4;11 cells; [5]) | pIC50 (MV4;11 cells; [6]) | pIC50 (MOLM-13 cells; [7]) | pIC50 (MOLM-13 cells; [8])
6.00 to 7.00 | 7.00 to 8.00 | 6.00 to 7.00 | 7.00 to 8.00 |  |  | O=C1CCC(N2C(=O)c3ccc(NCCCCCC(=O)N4CCC(n5cc(N6CCOCC6)cn5)CC4)cc3C2=O)C(=O)N1 (centres unmarked) [GS-047, 2-(2,6-Dioxopiperidin-3-yl)-5-((6-(4-(4-morpholino-1H-pyrazol-1-yl)piperidin-1-yl)-6-oxohexyl)amino)isoindoline-1,3-dione] |  |  |  | 
> 8.00 | > 8.00 | > 8.00 | > 8.00 |  |  | O=C1CCC(N2C(=O)c3ccc(NCCC[C@H]4C[C@@H](n5cc(-c6cnc7ccc(C8CCOCC8)cc7n6)c(C(F)(F)F)n5)C4)cc3C2=O)C(=O)N1 (stereo partly drawn) [GS-210, 2-(2,6-Dioxopiperidin-3-yl)-5-((3-(cis-3-(4-(7-(tetrahydro-2H-pyran-4-yl)quinoxalin-2-yl)-3-(trifluoromethyl)-1H-pyrazol-1-yl)cyclobutyl)propyl)amino)isoindoline-1,3-dione] |  |  |  | 
7.00 to 8.00 |  | 6.00 to 7.00 |  | > 8.00 | > 8.00 | CN1CCC(c2ccc3ncc(-c4cn(CCCCCCNc5ccc6c(c5)C(=O)N(C5CCC(=O)NC5=O)C6=O)nc4C4CC4)nc3c2)CC1 (centres unmarked) [GS-572, 5-((6-(3-Cyclopropyl-4-(7-(1-methylpiperidin-4-yl)quinoxalin-2-yl)-1H-pyrazol-1-yl)hexyl)amino)-2-(2,6-dioxopiperidin-3-yl)isoindoline-1,3-dione] |  |  |  | 
7.00 to 8.00 |  | 6.00 to 7.00 |  | > 8.00 | > 8.00 | CN1CC2CC1CN2c1ccc2ncc(-c3cn([C@H]4C[C@H](CCCNc5ccc6c(c5)C(=O)N(C5CCC(=O)NC5=O)C6=O)C4)nc3C3CC3)nc2c1 (stereo partly drawn) [GS-594, 5-((3-(trans-3-(3-Cyclopropyl-4-(7-((1R,4R)-5-methyl-2,5-diazabicyclo[2.2.1]heptan-2-yl)quinoxalin-2-yl)-1H-pyrazol-1-yl)cyclobutyl)propyl)amino)-2-(2,6-dioxopiperidin-3-yl)isoindoline-1,3-dione] |  |  |  | 
> 8.00 | 7.00 to 8.00 | 6.00 to 7.00 | 7.00 to 8.00 |  |  | O=C1CCC(N2C(=O)c3ccc(NCCC[C@H]4C[C@H](n5cc(-c6cnc7c(F)cccc7n6)cn5)C4)cc3C2=O)C(=O)N1 (stereo partly drawn) [GS-234, 2-(2,6-Dioxopiperidin-3-yl)-5-((3-(trans-3-(4-(5-fluoroquinoxalin-2-yl)-1H-pyrazol-1-yl)cyclobutyl)propyl)amino)isoindoline-1,3-dione] |  |  |  | 
7.00 to 8.00 | > 8.00 | 7.00 to 8.00 | > 8.00 |  |  | O=C1CCC(N2C(=O)c3ccc(NCCCCCC(=O)N4CCC(n5cc(-c6cnc7cccc(C8CCOCC8)c7n6)cn5)CC4)cc3C2=O)C(=O)N1 (centres unmarked) [GS-043, 2-(2,6-Dioxopiperidin-3-yl)-5-((6-oxo-6-(4-(4-(8-(tetrahydro-2H-pyran-4-yl)quinoxalin-2-yl)-1H-pyrazol-1-yl)piperidin-1-yl)hexyl)amino)isoindoline-1,3-dione] |  |  |  | 
> 8.00 | > 8.00 | > 8.00 | > 8.00 |  |  | O=C1CCC(N2C(=O)c3ccc(NC[C@H]4C[C@H](n5cc(-c6nccc7cccnc67)c(C6CC6)n5)C4)cc3C2=O)C(=O)N1 (stereo partly drawn) [GS-286, 5-(((trans-3-(3-Cyclopropyl-4-(1,7-naphthyridin-8-yl)-1H-pyrazol-1-yl)cyclobutyl)methyl)amino)-2-(2,6-dioxopiperidin-3-yl)isoindoline-1,3-dione] |  |  |  | 
